Data: patent US9244073B2, “Assays for detecting enzymatic activity” (Wellstat Diagnostics, LLC, priority 2011, dated 2016)
Primed or numbered codes have the meaning given here. KLCBiot = lysine with long-chain biotin conjugated to the side-chain primary amine (Lysine-Long-Chain-Biotin); mPeg2 = hydrophilic 9-atom polyethylene (PEG) spacer; Bz′ = not defined here

Assays:
Format in all cases: biochemical
FXa [1] = test: Detecting FXa activity with biotin- and TAG Plus-conjugated substrate (ECL, loss of signal on cleavage)
Excerpt: FXa activity can be measured through the use of peptides that include a FXa recognition sequence, a biotin at one terminus of the peptide and a BV-TAG Plus at the other terminus. In this embodiment, FXa recognizes and specifically cleaves the peptide between the arginine amino acid and the next amino acid toward the carboxy terminus, e.g., between arginine and glycine in peptide probe sequences I and II below. The cleavage by FXa results in the separation of biotin from the BV-TAG Plus. When the biotin is captured with streptavidin coated microparticles (Dynabeads M280-SA, Invitrogen, Cat: 112-06D), this loss of BV-TAG Plus can be measured quantitatively by an ECL instrument such as the M-SERIES® M1MR Analyzer (BioVeris Corporation, Gaithersburg, Md.).
A FXa activity calibrator curve was set up in a 96-well U bottom microtiter plate containing a serial dilution of FXa in an assay buffer [20 mM Tris-HCl (pH 7.2), 100 mM NaCl, 0.5% BSA and 6.0 mM CaCl2], with either peptide probe sequence I or II and M280-SA beads (Dynabeads M280-SA, Invitrogen, Cat: 112-06D). To each well was added 50 μL of 2-fold serial dilutions of FXa from 5000, 2500, 1250, 625, 313, 156 and 78.1 ng/mL and 50 μL of peptide probe (sequence I or II) at 10.0 ng/mL. The plate was incubated for 50 minutes on a MicroMix 5 shaker (Siemens) at room temperature and then 20 μL of 500 μg/mL M280-SA beads were added for an additional 10-minute incubation. The beads were washed once in 150 μL of a PBS-based buffer solution containing 1.8 mM KH2PO4, 10 mM Na2HPO4, 120 mM NaCl, 2.7 mM KCl, 0.033% Tween20 and 0.10% KATHON® CG/ICP II (Cat: 48178-U. Sigma, St. Louis, Mo.) and recovered by attaching a plate magnet to the 96-well plate (LIFESEP™ 96F, Dexter Magnetic Technologies Inc., Elk Grove Village, Ill. 60007). Beads were resuspended in 150 μL of the same PBS-based buffer and read in a M1MR Analyzer (Bioveris).

FXa [2] = test: Detecting FXa activity by detection of a neoepitope with TAG Plus anti-FLAG M1 detector antibody (ECL immunoassay)
Excerpt: FXa activity can be measured using peptides comprising a FXa recognition site (-IEGR-) (SEQ ID NO:1) at their N-terminus followed by an amino acid sequence which can be cleaved “off” by FXa. For example, peptide sequence III, below, can be cleaved by FXa to produce peptide sequence IV below. The FXa cleavage of the peptide bond after the arginine residue of the -IEGR- sequence (SEQ ID NO:1) produces a free NH2 group at the N-terminal of the peptide sequence (sequence IV) and the peptide sequence becomes a new epitope (neoepitope) after cleavage.
A FXa activity calibrator curve was set up in a 96-well U bottom microtiter plate containing 100 μL of a 3-fold serial dilution of FXa at 500, 167, 55.6, 18.5, 6.17, 2.06 and 0.686 ng/mL in an assay buffer [50 mM Tris-HCl (pH 7.4), 100 mM NaCl, 0.5% BSA, 10 mg/mL ciprofloxacin, 0.5% Tween-20 and 7.0 mM CaCl2] and 50 μL of a master mix of FXa detection reagent containing 200 μg/mL of M280-SA beads, 600 ng/mL of a peptide sequence V and 1000 ng/mL of TAG Plus anti-FLAG® M1 antibody (Example 2) in the same assay buffer. The peptide sequence V comprises peptide sequence III and a sequence HHHHHH(mPeg2)(KLCBiot)-amide (SEQ ID NO:9). The HHHHHH(mPeg2) (SEQ ID NO:9), a mini-PEG molecule with 9 carbon polyethylene molecule, serves as a spacer, which was conjugated with a lysine at its C-terminus. A biotin molecule was conjugated to the primary amine group on the side chain of the lysine. The peptide can be captured through the high affinity interaction between biotin and streptavidin molecule.
The plate was incubated on a hot plate (Digital Heatblock, Cat. 12621-100, VWR International, LLC., West Chester, Pa. 19380) at 37° C. for 10 or 20 minutes. After the incubation, the beads were washed once in 150 μL of the PBS-based buffer solution (Example 1) and recovered by attaching a plate magnet to the 96-well plate (LIFESEP™ 96F, Dexter Magnetic Technologies Inc., Elk Grove Village, Ill. 60007). Beads were resuspended in 150 μL of the PBS-based buffer and read in a M1MR analyzer. […] Under both incubation conditions, FXa activities were detectable at 1.00 ng/mL or lower concentrations of FXa (signal/background ≧3.0). This lower detection limit is unexpectedly much better than that achieved in Example 1.

FXa [3] = test: Detecting FXa activity by capturing the TAG-labeled neoepitope with anti-FLAG M1 beads (ECL)
Protocol: A FXa activity calibrator curve was set up in a 96-well U bottom microtiter plate containing 50 μL of a 3-fold serial dilution of FXa at 1000, 333, 111, 37.0, 12.3, 4.12 and 1.37 ng/mL in the assay buffer (Example 4) and 25 μL of NH2-IEGRDYKDDDDKGS-TAG (SEQ ID NO:5) (1.25, 2.5 or 5.0 μg/mL) in a hot plate at 37° C. for 10 minutes. After the incubation, 50 μL of Bi-anti-FLAG®-M1 antibody prebound beads (200 μg/mL concentration at the ratio of 10 μg of antibody per 1.0 mg of beads) were added, followed by an incubation for another 20 minutes at 37° C. After the incubation, the beads were washed once in 150 μL of the PBS-based buffer solution (Example 3) and were resuspended in 150 μL of the PBS-based buffer before beads were read in a M1MR analyzer (BioVeris).

[4] = 10 minute incubation, FXa 0.686 ng/mL
[5] = 10 minute incubation, FXa 2.06 ng/mL
[6] = 10 minute incubation, FXa 6.17 ng/mL
[7] = 10 minute incubation, FXa 18.5 ng/mL
[8] = 10 minute incubation, FXa 55.6 ng/mL
[9] = 10 minute incubation, FXa 167 ng/mL
[10] = 10 minute incubation, FXa 500 ng/mL
[11] = 20 minute incubation, FXa 0.686 ng/mL
[12] = 20 minute incubation, FXa 2.06 ng/mL
[13] = 20 minute incubation, FXa 6.17 ng/mL
[14] = 20 minute incubation, FXa 18.5 ng/mL
[15] = 20 minute incubation, FXa 55.6 ng/mL
[16] = 20 minute incubation, FXa 167 ng/mL
[17] = 20 minute incubation, FXa 500 ng/mL
[18] = substrate 1.25 μg/mL, FXa 1.37 ng/mL
[19] = substrate 1.25 μg/mL, FXa 4.12 ng/mL
[20] = substrate 1.25 μg/mL, FXa 12.3 ng/mL
[21] = substrate 1.25 μg/mL, FXa 37.0 ng/mL
[22] = substrate 1.25 μg/mL, FXa 111 ng/mL
[23] = substrate 1.25 μg/mL, FXa 333 ng/mL
[24] = substrate 1.25 μg/mL, FXa 1000 ng/mL
[25] = substrate 2.5 μg/mL, FXa 1.37 ng/mL
[26] = substrate 2.5 μg/mL, FXa 4.12 ng/mL
[27] = substrate 2.5 μg/mL, FXa 12.3 ng/mL
[28] = substrate 2.5 μg/mL, FXa 37.0 ng/mL
[29] = substrate 2.5 μg/mL, FXa 111 ng/mL
[30] = substrate 2.5 μg/mL, FXa 333 ng/mL
[31] = substrate 2.5 μg/mL, FXa 1000 ng/mL
[32] = substrate 5.0 μg/mL, FXa 1.37 ng/mL
[33] = substrate 5.0 μg/mL, FXa 4.12 ng/mL
[34] = substrate 5.0 μg/mL, FXa 12.3 ng/mL
[35] = substrate 5.0 μg/mL, FXa 37.0 ng/mL
[36] = substrate 5.0 μg/mL, FXa 111 ng/mL
[37] = substrate 5.0 μg/mL, FXa 333 ng/mL
[38] = substrate 5.0 μg/mL, FXa 1000 ng/mL

Chain of FXa (P00742 41-179 limits assumed): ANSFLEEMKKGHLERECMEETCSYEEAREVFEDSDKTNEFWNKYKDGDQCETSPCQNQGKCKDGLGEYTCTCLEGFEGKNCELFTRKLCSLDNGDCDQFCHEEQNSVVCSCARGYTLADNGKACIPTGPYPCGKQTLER
Chain of FXa (P00742 235-488 limits assumed): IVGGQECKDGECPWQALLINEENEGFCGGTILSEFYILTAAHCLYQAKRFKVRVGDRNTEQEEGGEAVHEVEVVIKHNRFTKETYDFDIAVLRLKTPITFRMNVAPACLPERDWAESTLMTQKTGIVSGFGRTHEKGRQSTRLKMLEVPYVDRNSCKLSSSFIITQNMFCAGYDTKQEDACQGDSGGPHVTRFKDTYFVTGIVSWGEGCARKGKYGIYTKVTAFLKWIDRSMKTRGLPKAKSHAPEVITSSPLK

Biotin-(mPeg2)IEGRGS (KBv TAG Plus) amide [Peptide Probe Sequence II]
% Signal Decrease (FXa [1]; FXa 78.1 ng/mL): 0%
Mean Signal (FXa [1]; FXa 78.1 ng/mL): 339795
% Signal Decrease (FXa [1]; FXa 156 ng/mL): −4%
Mean Signal (FXa [1]; FXa 156 ng/mL): 325928
% Signal Decrease (FXa [1]; FXa 313 ng/mL): −11%
Mean Signal (FXa [1]; FXa 313 ng/mL): 302632
% Signal Decrease (FXa [1]; FXa 625 ng/mL): −10%
Mean Signal (FXa [1]; FXa 625 ng/mL): 305778
% Signal Decrease (FXa [1]; FXa 1250 ng/mL): −24%
Mean Signal (FXa [1]; FXa 1250 ng/mL): 256745
% Signal Decrease (FXa [1]; FXa 2500 ng/mL): −39%
Mean Signal (FXa [1]; FXa 2500 ng/mL): 208649
% Signal Decrease (FXa [1]; FXa 5000 ng/mL): −66%
Mean Signal (FXa [1]; FXa 5000 ng/mL): 116839

Biotin-IEGRGS (KBv TAG Plus) amide [Peptide Probe Sequence I]
% Signal Decrease (FXa [1]; FXa 78.1 ng/mL): −3%
Mean Signal (FXa [1]; FXa 78.1 ng/mL): 413958
% Signal Decrease (FXa [1]; FXa 156 ng/mL): −3%
Mean Signal (FXa [1]; FXa 156 ng/mL): 413232
% Signal Decrease (FXa [1]; FXa 313 ng/mL): −9%
Mean Signal (FXa [1]; FXa 313 ng/mL): 388137
% Signal Decrease (FXa [1]; FXa 625 ng/mL): −15%
Mean Signal (FXa [1]; FXa 625 ng/mL): 363185
% Signal Decrease (FXa [1]; FXa 1250 ng/mL): −31%
Mean Signal (FXa [1]; FXa 1250 ng/mL): 296182
% Signal Decrease (FXa [1]; FXa 2500 ng/mL): −53%
Mean Signal (FXa [1]; FXa 2500 ng/mL): 202007
% Signal Decrease (FXa [1]; FXa 5000 ng/mL): −76%
Mean Signal (FXa [1]; FXa 5000 ng/mL): 103604

Bz-IEGRDYKDDDDKGSHHHHHH(mPeg2)(KLCBiot)-amide ({Bz′}-IEGRDYKDDDDKGSHHHHHH-{mPeg2-KLCBiot-NH2}) [Peptide sequence V]
Mean Signal (FXa [2]; [4]): 856
Signal/Background (FXa [2]; [4]): 2.5
Mean Signal (FXa [2]; [5]): 1427
Signal/Background (FXa [2]; [5]): 4.1
Mean Signal (FXa [2]; [6]): 3105
Signal/Background (FXa [2]; [6]): 9.0
Mean Signal (FXa [2]; [7]): 8793
Signal/Background (FXa [2]; [7]): 25
Mean Signal (FXa [2]; [8]): 33734
Signal/Background (FXa [2]; [8]): 98
Mean Signal (FXa [2]; [9]): 113240
Signal/Background (FXa [2]; [9]): 328
Mean Signal (FXa [2]; [10]): 298048
Signal/Background (FXa [2]; [10]): 864
Mean Signal (FXa [2]; [11]): 1047
Signal/Background (FXa [2]; [11]): 3.3
Mean Signal (FXa [2]; [12]): 2109
Signal/Background (FXa [2]; [12]): 6.6
Mean Signal (FXa [2]; [13]): 6035
Signal/Background (FXa [2]; [13]): 19
Mean Signal (FXa [2]; [14]): 20653
Signal/Background (FXa [2]; [14]): 65
Mean Signal (FXa [2]; [15]): 73974
Signal/Background (FXa [2]; [15]): 232
Mean Signal (FXa [2]; [16]): 224915
Signal/Background (FXa [2]; [16]): 706
Mean Signal (FXa [2]; [17]): 497703
Signal/Background (FXa [2]; [17]): 1562

NH2-IEGRDYKDDDDKGS-TAG (TAG label; includes cleavage recognition site and binding site for anti-FLAG antibody)
Mean Signal (FXa [3]; [18]): 1140
Signal/Background (FXa [3]; [18]): 1.9
Mean Signal (FXa [3]; [19]): 2174
Signal/Background (FXa [3]; [19]): 3.7
Mean Signal (FXa [3]; [20]): 4437
Signal/Background (FXa [3]; [20]): 7.5
Mean Signal (FXa [3]; [21]): 10667
Signal/Background (FXa [3]; [21]): 18
Mean Signal (FXa [3]; [22]): 20521
Signal/Background (FXa [3]; [22]): 35
Mean Signal (FXa [3]; [23]): 52797
Signal/Background (FXa [3]; [23]): 89
Mean Signal (FXa [3]; [24]): 69011
Signal/Background (FXa [3]; [24]): 116
Mean Signal (FXa [3]; [25]): 1393
Signal/Background (FXa [3]; [25]): 1.6
Mean Signal (FXa [3]; [26]): 3828
Signal/Background (FXa [3]; [26]): 4.5
Mean Signal (FXa [3]; [27]): 7696
Signal/Background (FXa [3]; [27]): 9.0
Mean Signal (FXa [3]; [28]): 20144
Signal/Background (FXa [3]; [28]): 24
Mean Signal (FXa [3]; [29]): 41788
Signal/Background (FXa [3]; [29]): 49
Mean Signal (FXa [3]; [30]): 62747
Signal/Background (FXa [3]; [30]): 73
Mean Signal (FXa [3]; [31]): 78193
Signal/Background (FXa [3]; [31]): 91
Mean Signal (FXa [3]; [32]): 3725
Signal/Background (FXa [3]; [32]): 2.1
Mean Signal (FXa [3]; [33]): 6363
Signal/Background (FXa [3]; [33]): 3.6
Mean Signal (FXa [3]; [34]): 14866
Signal/Background (FXa [3]; [34]): 8.4
Mean Signal (FXa [3]; [35]): 32274
Signal/Background (FXa [3]; [35]): 18
Mean Signal (FXa [3]; [36]): 62147
Signal/Background (FXa [3]; [36]): 35
Mean Signal (FXa [3]; [37]): 78710
Signal/Background (FXa [3]; [37]): 45
Mean Signal (FXa [3]; [38]): 86900
Signal/Background (FXa [3]; [38]): 49
